{
  "source": "paper PMC5767327",
  "about": "“Tonically Active α2 Subunit-Containing Glycine Receptors Regulate the Excitability of Striatal Medium Spiny Neurons” (Frontiers in Molecular Neuroscience, 2018)",
  "molecular_target": "T1, GlyR α2 (native α2 subunit-containing glycine receptors of striatal medium spiny neurons) (Mus musculus, UniProt Q7TNC8)",
  "T1 construct": "gene Glra2; native full-length receptor in adult dorsal striatal slices; α2 homomer or α2β heteromer (Glrb) not resolved by authors; no glycine current in Glra2 knockout MSNs",
  "T1 sequence (Q7TNC8 28-452)": "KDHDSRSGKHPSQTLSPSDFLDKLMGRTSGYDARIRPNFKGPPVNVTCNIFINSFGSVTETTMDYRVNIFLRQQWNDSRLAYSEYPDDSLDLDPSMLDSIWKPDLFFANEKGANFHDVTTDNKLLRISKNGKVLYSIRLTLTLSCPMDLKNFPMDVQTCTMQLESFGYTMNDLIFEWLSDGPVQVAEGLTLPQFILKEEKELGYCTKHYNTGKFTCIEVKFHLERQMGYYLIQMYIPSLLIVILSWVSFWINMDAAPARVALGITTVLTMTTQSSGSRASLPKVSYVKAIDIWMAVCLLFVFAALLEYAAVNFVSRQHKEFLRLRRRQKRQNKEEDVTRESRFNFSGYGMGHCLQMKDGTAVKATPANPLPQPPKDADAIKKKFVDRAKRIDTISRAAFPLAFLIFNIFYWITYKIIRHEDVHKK",
  "assay": "whole-cell patch clamp, evoked chloride current, fast perfusion, Hill fit",
  "assay_type": "cell-based",
  "details": "read-out: STP MSNs (n = 6); agonist; STP MSNs (Drd2-EGFP) in acute striatal slices, native receptor; -80 mV, 32°C; with gabazine, CNQX, DHβE, L-689,560, TTX; authors call it a higher boundary (diffusion in slice)",
  "source_text": "whole-cell patch clamp, evoked chloride current, fast perfusion, Hill fit on GlyR α2 (native α2 subunit-containing glycine receptors of striatal medium spiny neurons)",
  "data": [
    {"smiles": "NCC(=O)O", "note": "[glycine]", "values": [
      {"measurement": "EC50", "result": "317 ± 25.4", "unit": "µM"}
    ]}
  ]
}
